Entries after “also recorded” stand apart in the source; their conditions may differ.
How the values were obtained:
[1] = system: cell suspensions of C1-utilizers; assay: studies on production of 2-butanone from 2-butanol by cell suspensions of the strains tested; format: cell-based; conditions: for rate of oxidation of secondary alcohols by strains of C1-utilizers: cell suspensions
Source text: The following summarizes tests conducted on the optimal conditions for the production of methyl ketones from C3 -C6 sec. alcohols.
The substrate specificity for the oxidation of C3 -C6 secondary alcohols by the strains of C1 -utilizers was studied.

[2] = system: Methanomonas methylovora ATCC 21852 (Obligate); assay: sec-alcohols to ketones by resting cell suspensions; format: cell-based
Protocol: (§1) The pH of the nutrient medium was adjusted to 7.0 by the addition of acid or base and 50 ml. samples of the nutrient medium were charged into a plurality of 300 ml. shaker flasks. The shaker flasks were inoculated with an inoculating loop of cells from an agar plate containing homogeneous colonies of the microorganisms on the plate (the purity of the isolates was confirmed by microscopic examination). The isolates had been maintained on methanol (0.4% V/V) agar plates or on agar plates under an atmosphere of methane and air having a 1:1 V/V gas ratio which had been transferred every two weeks. For growth on methanol, the medium was supplemented with 0.4% methanol. For growth on methane, the gaseous phase of the inoculated flasks was replaced with a gas mixture comprised of methane and air having a ratio of 1:1 on a V/V basis. The inoculated flasks were sealed air-tight and were incubated on a rotary shaker of orbital radius 2.5 cm. at 250 rpm and at 30° C. for two days until turbidity in the medium had developed. The cells were harvested by centrifugation at 10,000×g. at 4° C. for 30 minutes. The cell pellet was washed twice with a 0.05 M phosphate buffer at a pH of 7.0 (containing 0.02 M MgCl2). The washed cells were then suspended in a 0.05 M phosphate buffer at pH 7.0.
(§2) A 0.5 ml. sample of each washed cell suspension (2 mg. cells) was put into 10 ml. vials at 4° C. which were sealed with a rubber cap. The gaseous phase of the vials was removed with vacuum and then was replaced with a gas mixture of the substrate reactant (i.e., alkane or secondary alcohol) and oxygen at a 1:1 V/V ratio. (In the case of a liquid substrate, i.e., secondary alcohol, 10 μl of the substrate was put in the 10 ml. vials). […] Samples of product (1-3 μl) were withdrawn periodically with a microsyringe and the products were analyzed by gas chromatography (ionization flame detector column).
(§3) The procedure in Example 1 was repeated except that a plurality of methanol-utilizing methylotrophic microorganisms were each aerobically grown in a methanol-containing nutrient medium instead of a methane-containing medium. The nutrients in the medium were the same as indicated in Example 1 except that 0.4% V/V methanol was used as the alcohol dehydrogenase inducer and as the major carbon and energy source for growth. The cells were harvested and washed as described in Example 1. The resting microbial cells of the induced methanol-grown methanol-utilizing methylotrophic microorganisms were then contacted with C3 -C6 secondary alcohols in a buffered solution by the procedure of Example 1.
(§4) The procedure in Example 1 was repeated except that the methylotrophic microorganisms were each aerobically grown in an alcohol dehydrogenase-inducing growth medium containing methylamine or methyl formate as the alcohol dehydrogenase enzyme inducer and growth substrate instead of methane. The nutrients in the medium were the same as indicated in Example 1 except that 0.4% V/V of the alcohol dehydrogenase-inducer growth substrate was used as the major carbon and energy source. The cells were harvested and washed as described in Example 1. The resting microbial cells were then contacted with C3 -C6 secondary alcohols in a buffered solution by the conversion procedure of Example 1.

[3] = system: Pseudomonas sp. ATCC 21438 (Facultative); assay: as above; format: cell-based
Protocol: as §1, §2, §3, §4

[4] = system: secondary alcohol dehydrogenase (SADH), cell-free soluble extract; assay: oxidation of sec-alcohols by cell-free soluble extracts; format: biochemical, Methylosinus trichosporium OB3b (NRRL B-11,196); conditions: for Oxidation Rate, sec-alcohol to corresponding ketone: soluble crude extract, grown on methanol
Protocol: (§5) To prepare the cell-free secondary alcohol dehydrogenase (SADH) system, the washed cells were disrupted with a Wave Energy Ultrasonic Oscillator, Model W201 (Wave Energy System, Inc., Newtown, Pa.) and centrifuged at 20,000×g. for 30 minutes. […] The enzyme activity was measured with a fluorescence spectrophotometer (Perkin Elmer, Model MPF 44A) by following the formation of reduced NAD (EX 340 nm, Em 460 nm). The formation of reduced NAD was also followed with an absorption spectrophotometer at 340 nm. The assay system (3 ml.) contained: potassium phosphate buffer pH 7.0; 150 μmol.; NAD 1 μmol.; a given amount of enzyme preparation; and secondary alcohol 10 μmol. The reaction was started by the addition of substrate. One unit of enzyme activity represents the reduction of one μmole NAD per minute. Protein concentrations were determined by the Lowry method (J. Biol. Chem., 193: 255-275 (1951)).
(§6) The experimental procedure for the tests reported in Table VIII were as follows: 1 mg protein of crude extract was added into a 0.5 ml. 0.05 M phosphate buffer (pH 7.0) in a 10-ml. vial. […] The reaction mixture was incubated at 30° C. on a water bath. A 3 μl sample was removed with a syringe at 15 min. of incubation and was assayed with g.l.c. Catalytic activity was also assayed by fluorescence spectrophotometry.

[5] = system: Pseudomonas sp. ATCC 21439 (Obligate); assay: sec-alcohols to ketones by resting cell suspensions; format: cell-based; conditions: methanol-grown cells
Protocol: as §1, §2, §3

[6] = system: Pseudomonas MS ATTC 25262 (Facultative); assay: as above; format: cell-based; conditions: methanol-grown cells
Protocol: as §1, §2, §3

[7] = system: secondary alcohol dehydrogenase (SADH), cell-free soluble extract; assay: oxidation of sec-alcohols by cell-free soluble extracts; format: biochemical, Pseudomonas sp. CRL 75 (ATCC 21,439); conditions: for Oxidation Rate, sec-alcohol to corresponding ketone: soluble crude extract, grown on methanol
Protocol: as §5, §6

[8] = system: cell extracts (NAD+-dependent secondary alcohol dehydrogenase); assay: sec-alcohols to methyl ketones by cell extracts of yeasts, gas chromatography; format: biochemical, Pichia sp. NRRL-Y-11,328; conditions: grown on methanol
[9] = system: Hansenula polymorpha ATCC 26012; assay: sec-alcohols to ketones by cell suspensions of yeasts; format: cell-based
[10] = system: Candida utilis ATCC 26387; assay: as above; format: cell-based

Structure (SMILES) | rate of oxidation of secondary alcohols by strains of C1-utilizers [1] | Conversion Rates, sec-alcohol to corresponding ketone ([2]; methanol-grown cells) [μmoles/hr/mg protein] | Conversion Rates, sec-alcohol to corresponding ketone ([2]; methyl formate-grown cells) [μmoles/hr/mg protein] | Conversion Rates, sec-alcohol to corresponding ketone ([2]; methylamine-grown cells) [μmoles/hr/mg protein] | Conversion Rates, sec-alcohol to corresponding ketone ([3]; methanol-grown cells) [μmoles/hr/mg protein] | Conversion Rates, sec-alcohol to corresponding ketone ([3]; methyl formate-grown cells) [μmoles/hr/mg protein] | Conversion Rates, sec-alcohol to corresponding ketone ([3]; methylamine-grown cells) [μmoles/hr/mg protein] | Oxidation Rate, sec-alcohol to corresponding ketone [4] [nmole/min/mg protein] | Conversion Rates, sec-alcohol to corresponding ketone [5] [μmoles/hr/mg protein] | Conversion Rates, sec-alcohol to corresponding ketone [6] [μmoles/hr/mg protein] | Oxidation Rate, sec-alcohol to corresponding ketone [7] [nmole/min/mg protein] | Conversion Rate, sec-alcohol to methyl ketone [8] [μmoles/hr/mg Protein] | Conversion Rate, sec-alcohol to corresponding ketone ([9]; Growth Substrate Ethanol) | Conversion Rate, sec-alcohol to corresponding ketone ([9]; Growth Substrate Methanol) | Conversion Rate, sec-alcohol to corresponding ketone ([9]; Growth Substrate Methylamine) | Conversion Rate, sec-alcohol to corresponding ketone ([9]; Growth Substrate Methylformate) | Conversion Rate, sec-alcohol to corresponding ketone ([9]; Growth Substrate Propylamine) | Conversion Rate, sec-alcohol to corresponding ketone ([10]; Growth Substrate Ethanol) | Conversion Rate, sec-alcohol to corresponding ketone ([10]; Growth Substrate Methanol) | Conversion Rate, sec-alcohol to corresponding ketone ([10]; Growth Substrate Methylamine) | other results
CCC(C)O (stereo not drawn) [2-Butanol, 2-butanol] | highest rate; also recorded: higher rates | 2.5 | 2.1 | 3.2 | 3.2 | 3.2 | 2.1 | 2.4 | 4.7 | 3.5 | 25.0 | 6.2 | 4.8 μmoles/hr/mg of protein | 5.8 μmoles/hr/mg of protein | 4.5 μmoles/hr/mg of protein | 5.2 μmoles/hr/mg of protein | 4.0 μmoles/hr/mg of protein | 5.2 μmoles/hr/mg of protein | 6.8 μmoles/hr/mg of protein | 5.0 μmoles/hr/mg of protein | 2-butanol concentration supporting maximum 2-butanone production ([1]; cell suspensions of yeast and Pseudomonas sp. ATCC 21,439, 35 min. incubation): about 50 μmoles; Conversion Rate, 2-butanol to 2-butanone ([4]; Growth Substrate CH3 NH2): 2.5 nmoles/min/mg protein; Conversion Rate, 2-butanol to 2-butanone ([4]; Growth Substrate CH3 OH): 2.4 nmoles/min/mg protein; Conversion Rate, 2-butanol to 2-butanone ([4]; Growth Substrate CH4): 4.5 nmoles/min/mg protein; Conversion Rate, 2-butanol to 2-butanone ([4]; Growth Substrate HCOOCH3): 2.0 nmoles/min/mg protein; Conversion Rate, 2-butanol to 2-butanone ([7]; Growth Substrate CH3 OH): 25.0 nmoles/min/mg protein; Conversion Rate, sec-alcohol to corresponding ketone ([10]; Growth Substrate Methylformate): 6.2 μmoles/hr/mg of protein; Conversion Rate, sec-alcohol to corresponding ketone ([10]; Growth Substrate Propylamine): 4.2 μmoles/hr/mg of protein
CCCCC(C)O (stereo not drawn) [2-Hexanol, 2-hexanol] | much slower rate | 1.0 | 0.60 | 0.09 | 0.7 | 0.80 | 0.07 | 0 | 0.03 | 0.80 | 0 | 0.60 | 0.54 μmoles/hr/mg of protein | 0.72 μmoles/hr/mg of protein | 0.62 μmoles/hr/mg of protein | 0.70 μmoles/hr/mg of protein | 0.48 μmoles/hr/mg of protein | 0.72 μmoles/hr/mg of protein | 0.8 μmoles/hr/mg of protein | 0.61 μmoles/hr/mg of protein | Conversion Rate, sec-alcohol to corresponding ketone ([10]; Growth Substrate Methylformate): 0.75 μmoles/hr/mg of protein; Conversion Rate, sec-alcohol to corresponding ketone ([10]; Growth Substrate Propylamine): 0.52 μmoles/hr/mg of protein
CCCC(C)O (stereo not drawn) [2-Pentanol, 2-pentanol] | much slower rate | 2.1 | 1.5 | 1.0 | 2.7 | 2.0 | 0.82 | 0.1 | 0.05 | 2.1 | 1.2 | 1.2 | 1.1 μmoles/hr/mg of protein | 1.4 μmoles/hr/mg of protein | 1.2 μmoles/hr/mg of protein | 1.3 μmoles/hr/mg of protein | 0.82 μmoles/hr/mg of protein | 1.0 μmoles/hr/mg of protein | 1.5 μmoles/hr/mg of protein | 1.2 μmoles/hr/mg of protein | Conversion Rate, sec-alcohol to corresponding ketone ([10]; Growth Substrate Methylformate): 1.3 μmoles/hr/mg of protein; Conversion Rate, sec-alcohol to corresponding ketone ([10]; Growth Substrate Propylamine): 0.9 μmoles/hr/mg of protein
